Results as given in patent US20150224089A1, “COMBINATIONS OF IKKi/TBK1 INHIBITORS WITH BETA ADRENERGIC AGONISTS OR SYMPATHETIC NERVOUS SYSTEM ACTIVATORS” (THE REGENTS OF THE UNIVERSITY OF MICHIGAN, priority 2014, published 2015).

How the values were obtained:
diet-induced obese mice = test: Serum FFA and glycerol after CL-316,243 injection in ND- or HFD-fed mice; type: in vivo; settings: amlexanox-treated HFD mice compared to vehicle-treated HFD-fed mice; oral gavage 4 days
Description: (§1) (A) Fold increase in serum FFA (left panel) and glycerol (right panel) levels 15 min after CL-316,243 injection in ND- or HFD-fed mice treated with amlexanox or vehicle control for 4 days. (B) Glycerol release from ex vivo epididymal (left panel) and inguinal (right panel) WATs after 1 hr pretreatment with amlexanox or vehicle. CL-316,243 treatment was started at time zero. (C) Immunoblots in inguinal WAT lysates from FIG. 5B after 60 min of CL-316,243 treatment. (D) cAMP levels in epididymal WAT 20 min after CL-316,243 (CL) or saline control injection in HFD-fed mice treated with amlexanox or vehicle control for 4 days. (E) Immunoblots in epididymal WAT 5 min after CL-316,243 or saline control injection in HFD-fed mice treated with amlexanox or vehicle control for 4 days. (F) Relative oxygen comsumption of mice in each treatment group.
To test the functional importance of the noncanonical IKKs in maintaining energy balance in vivo, experiments were conducted during development of embodiments of the present invention to investigate whether the administration of a selective inhibitor of IKKε and TBK1, amlexanox, can reverse diet-induced catecholamine resistance in rodentsMice were fed a high fat or normal diet, treated them with amlexanox by oral gavage for 4 days (prior to the point when weight loss is seen), and then gave a single intraperitoneal (IP) injection of the β3-adrenergic agonist CL-316,243. Injection of CL-316,243 stimulated a threefold increase in serum FFA and glycerol levels in both vehicle and amlexanox-treated mice on normal diet (ND).

[1] = tested on: white adipose tissues from mice on a HFD; test: Glycerol release from ex vivo epididymal and inguinal white adipose tissue; settings: ex vivo 1 hr pretreatment with amlexanox, CL-316,243 treatment, more pronounced in inguinal depot
Description: as §1, with “group. […]” for “group.”

inguinal WAT = test: Immunoblots in ex vivo inguinal WAT lysates after CL-316,243 treatment; parameters: species or system mice
Description: as §1, with “group. […]” for “group.”

**Q.** For `CC(C)c1ccc2oc3nc(N)c(C(=O)O)cc3c(=O)c2c1` [amlexanox, 2-amino-7-isopropyl-1-azaxanthone-3-carboxylic acid; 2-amino-7-isopropyl-5-oxo-5H-chromeno[2,3-b]pyridine-3-carboxylic acid], which “fold increase in serum glycerol levels after CL-316,243” value (diet-induced obese mice) is on record?
**A.** significantly higher

**Q.** What about the “glycerol release from white adipose tissues” value [1] of the same molecule?
**A.** enhanced glycerol release

**Q.** And the “phosphorylation of TBK1 at Ser172” value (inguinal WAT; ex vivo amlexanox pretreatment, relief of feedback inhibition)?
**A.** increased

**Q.** What about the “phosphorylation of HSL, perilipin and PKA substrate motif proteins in response to CL-316,243” value (inguinal WAT; inguinal fat depot, amlexanox pretreatment vs vehicle-pretreated, 60 min CL-316,243) of the same molecule?
**A.** increased phosphorylation
